Results: ChEMBL document CHEMBL1201862, “PubChem BioAssay data set” (2004)
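Protocol summary: plate cells (96-well), add compound at 5 concentrations, incubate 48 h, interpolate endpoints linearly. GI50 marks 50% less growth.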 The source made the active and inactive calls. Cut-off read from the data, not from the text of the source: active = GI50 up to about 1.1 µM and inactive = higher.

What was measured:
Experiment in all cases: inhibition of tumour cell growth, NCI panel, 48 h
[1] = system: A498
[2] = system: COLO 205
[3] = system: EKVX
[4] = system: HCC 2998
[5] = system: HOP-62
[6] = system: IGROV-1
[7] = system: Malme-3M
[8] = system: NCI-H226
[9] = system: NCI-H522
[10] = system: OVCAR-4
[11] = system: OVCAR-5
[12] = system: RPMI-8226
[13] = system: RXF 393
[14] = system: SF-295
[15] = system: SK-MEL-28
[16] = system: SNB-19
[17] = system: UACC-62

Measured: GI50

CN(C)CCCn1c2c3ccccc3ccc2c2oc(=O)c3ccccc3c21
inactive: [1] 13.3 µM | [2] 2.48 µM | [3] 12.7 µM | [4] 1.22 µM | [5] 5.7 µM | [6] 7.93 µM | [7] 7.64 µM | [8] > 35.2 µM | [9] 3.52 µM | [10] 6.38 µM | [11] 32.6 µM | [12] 4.63 µM | [13] 1.33 µM | [14] 3.62 µM | [15] 7.46 µM | [16] 5.96 µM | [17] 8.63 µM

O=C(c1ccccc1)c1ccc2c(c1)N=C(c1ccc(Cl)c(Cl)c1)CC(c1ccc3ccccc3c1)N2 (centres undefined)
inactive: [1] > 100 µM | [2] > 100 µM | [3] > 100 µM | [4] > 100 µM | [5] > 100 µM | [6] > 100 µM | [8] > 100 µM | [9] > 100 µM | [10] > 100 µM | [11] > 100 µM | [12] 99.8 µM | [13] > 100 µM | [14] > 100 µM | [15] > 100 µM | [16] > 100 µM | [17] > 100 µM

O=C(c1ccco1)N(C(=S)N1CCN(c2ccccn2)CC1)c1ccccc1
inactive: [2] > 100 µM | [5] > 100 µM | [6] > 100 µM | [7] > 100 µM | [8] 18.7 µM | [9] > 100 µM | [10] > 100 µM | [11] > 100 µM | [12] > 100 µM | [13] > 100 µM | [14] > 100 µM | [15] > 100 µM | [16] > 100 µM | [17] > 100 µM

CCN(C1=CC(=O)NC2CCCCN12)c1ccccc1 (centres undefined)
inactive: [1] > 100 µM | [2] > 100 µM | [3] > 100 µM | [4] > 100 µM | [5] > 100 µM | [6] > 100 µM | [7] > 100 µM | [10] > 100 µM | [11] > 100 µM | [12] > 100 µM | [13] > 100 µM | [14] > 100 µM | [15] > 100 µM | [16] > 100 µM | [17] > 100 µM

COc1ccc(NC(=O)/C(Cc2cc(=O)oc3cc(O)ccc23)=N\NC(C)(C)C)c(OC)c1
inactive: [1] 22.8 µM | [2] > 100 µM | [3] 12.6 µM | [4] > 100 µM | [5] > 100 µM | [6] > 100 µM | [7] > 100 µM | [8] > 100 µM | [9] > 100 µM | [10] > 100 µM | [11] > 100 µM | [12] > 100 µM | [14] > 100 µM | [15] > 100 µM | [16] > 100 µM | [17] > 100 µM

CC1=C(C(=O)Nc2c(C)cccc2C)C(c2ccccc2Cl)C(C(=O)Nc2c(C)cccc2C)=C(C)N1
inactive: [1] > 100 µM | [2] > 100 µM | [3] > 100 µM | [4] > 100 µM | [5] > 100 µM | [6] > 100 µM | [7] > 100 µM | [8] > 100 µM | [9] > 100 µM | [10] > 100 µM | [11] > 100 µM | [12] > 100 µM | [13] > 100 µM | [14] > 100 µM | [15] > 100 µM | [16] > 100 µM

NC1=NN(c2ccccc2)C(=O)C1C(=O)C(=O)Nc1ccccc1 (centres undefined)
inactive: [1] > 100 µM | [2] > 100 µM | [3] > 100 µM | [4] > 100 µM | [5] > 100 µM | [6] > 100 µM | [7] > 100 µM | [8] > 100 µM | [9] > 100 µM | [10] > 100 µM | [11] > 100 µM | [12] > 100 µM | [14] > 100 µM | [16] > 100 µM | [17] > 100 µM

C(=N\CC/N=C/c1cccc2ccccc12)/c1cccc2ccccc12
inactive: [2] > 100 µM | [3] > 100 µM | [4] > 100 µM | [6] > 100 µM | [7] > 100 µM | [8] > 100 µM | [9] > 100 µM | [10] > 100 µM | [11] > 100 µM | [12] > 100 µM | [13] > 100 µM | [14] > 100 µM | [15] > 100 µM | [16] > 100 µM | [17] > 100 µM

C[C@H](OCc1ccccc1)C(=O)N1CCS(=O)(=O)N2CCC[C@@H]2C1=O
inactive: [1] > 100 µM | [2] > 100 µM | [3] > 100 µM | [4] > 100 µM | [5] > 100 µM | [6] > 100 µM | [7] > 100 µM | [8] > 100 µM | [9] > 100 µM | [10] > 100 µM | [11] > 100 µM | [12] > 100 µM | [13] > 100 µM | [14] > 100 µM | [15] > 100 µM | [16] > 100 µM | [17] > 100 µM

O=C(Nc1cccc2c1[nH]c1c(-c3ccccc3)nccc12)c1ccccc1[N+](=O)[O-]
inactive: [1] 7.76 µM | [2] 26.2 µM | [3] 50.9 µM | [4] 18.6 µM | [6] 54.5 µM | [7] > 100 µM | [8] 3.74 µM | [10] 38.9 µM | [11] 18.6 µM | [12] 30.7 µM | [13] 12.6 µM | [14] 7.13 µM | [15] 49.5 µM | [16] 59.8 µM

Cc1ccc(NC(=O)C(=O)CC(=O)c2c(C)[n+]([O-])c3ccccc3[n+]2[O-])cc1C
inactive: [1] > 100 µM | [2] 43.7 µM | [3] > 100 µM | [4] > 100 µM | [5] > 100 µM | [6] > 100 µM | [7] > 100 µM | [8] > 100 µM | [9] 66.2 µM | [10] > 100 µM | [11] > 100 µM | [12] > 100 µM | [13] 44.7 µM | [14] > 100 µM | [15] > 100 µM | [16] 47.3 µM | [17] > 100 µM

Cc1cc2ncn(-c3nc4ccccc4nc3C(C#N)S(C)(=O)=O)c2cc1C (centres undefined)
inactive: [1] 19.7 µM | [2] > 100 µM | [3] > 100 µM | [4] > 100 µM | [5] > 100 µM | [6] > 100 µM | [7] > 100 µM | [8] 13.4 µM | [9] > 100 µM | [10] > 100 µM | [11] > 100 µM | [12] > 100 µM | [15] > 100 µM | [16] > 100 µM | [17] > 100 µM

CCN(CC)CCCCC1CCN(CC(=O)N2c3cc(Cl)ccc3NC(=O)CC2C)CC1 (centres undefined)
inactive: [1] > 100 µM | [2] > 100 µM | [4] > 100 µM | [5] > 100 µM | [6] > 100 µM | [7] > 100 µM | [8] > 100 µM | [10] > 100 µM | [11] > 100 µM | [12] > 100 µM | [14] > 100 µM | [15] > 100 µM | [16] > 100 µM | [17] > 100 µM

COC(=O)C1(O)CC(=O)CCC1c1ccc(OC)cc1 (centres undefined)
inactive: [1] > 100 µM | [2] > 100 µM | [3] > 100 µM | [4] > 100 µM | [5] > 100 µM | [6] > 100 µM | [7] > 100 µM | [8] > 100 µM | [9] > 100 µM | [10] > 100 µM | [11] > 100 µM | [12] > 100 µM | [14] > 100 µM | [15] > 100 µM | [16] > 100 µM | [17] > 100 µM

COc1ccc2[nH]c(=O)cc(C)c2c1[N+](=O)[O-]
inactive: [1] 54.8 µM | [2] > 100 µM | [3] 82 µM | [4] > 100 µM | [5] > 100 µM | [6] > 100 µM | [7] > 100 µM | [8] > 100 µM | [9] 47.4 µM | [10] > 100 µM | [11] > 100 µM | [12] > 100 µM | [13] > 10 µM | [14] > 100 µM | [15] > 100 µM | [16] > 100 µM | [17] > 100 µM

Cc1ccccc1NC(=O)C1C(=O)N(c2ccccc2C)C(=O)/C1=N\NC(N)=O (centres undefined)
inactive: [1] > 100 µM | [2] > 100 µM | [3] > 100 µM | [4] > 100 µM | [5] > 100 µM | [6] > 100 µM | [7] > 100 µM | [9] > 100 µM | [10] > 100 µM | [11] > 100 µM | [13] > 100 µM | [14] > 100 µM | [15] > 100 µM | [16] > 100 µM | [17] > 100 µM

CCN(CC)CCNC(=O)c1ccc([N+](=O)[O-])cc1OC
inactive: [1] > 100 µM | [2] > 100 µM | [3] > 100 µM | [5] > 100 µM | [6] > 100 µM | [7] > 100 µM | [8] > 100 µM | [9] > 100 µM | [10] > 100 µM | [11] > 100 µM | [13] > 100 µM | [14] > 100 µM | [15] > 100 µM | [16] > 100 µM | [17] > 100 µM
